Active and inactive are the calls of the source. The calls are words filed in the database; no cut-off is given here.
How the values were obtained:
[1] = Cytotoxicity against human MGC803 cells assessed as reduction in cell viability after 72 hrs by MTT assay; type: functional, cell-based; details: MGC-803, 72 h
[2] = Cytotoxicity against human EC109 cells assessed as reduction in cell viability after 72 hrs by MTT assay; type: functional, cell-based; details: ECa-109, 72 h
[3] = test system: MCF7; assay: Cytotoxicity against human MCF7 cells assessed as reduction in cell viability after 72 hrs by MTT assay; type: functional, cell-based; details: MCF7, 72 h
[4] = Cytotoxicity against human SMMC7721 cells assessed as reduction in cell viability after 72 hrs by MTT assay; type: functional, cell-based; details: SMMC-7721, 72 h
[5] = Cytotoxicity against human GES-1 cells assessed as cell viability at 20 uM after 72 hrs by MTT assay relative to control; type: cell-based, GES1; details: read-out: Activity
[6] = test system: MGC-803; assay: Induction of apoptosis in human MGC803 cells assessed as morphological changes at 4 to 12 uM after 12 hrs by inverted microscopy; type: functional, cell-based
[7] = test system: MGC-803; assay: Induction of apoptosis in human MGC803 cells assessed as nuclear morphological changes at 4 to 12 uM after 12 hrs by Hoechst 33258 staining based fluorescence assay; type: functional, cell-based
[8] = test system: MGC-803; assay: Induction of apoptosis in human MGC803 cells assessed as early apoptotic cells at 4 uM after 12 hrs by Annexin V-FITC/propidium iodide staining based flow cytometry (reference value: 6.3%); type: functional
[9] = test system: MGC-803; assay: Induction of apoptosis in human MGC803 cells assessed as late apoptotic cells at 4 uM after 12 hrs by Annexin V-FITC/propidium iodide staining based flow cytometry (reference value: 1.2%); type: functional
[10] = test system: MGC-803; assay: Induction of apoptosis in human MGC803 cells assessed as necrotic cells at 4 uM after 12 hrs by Annexin V-FITC/propidium iodide staining based flow cytometry (reference value: 9.2%); type: functional
[11] = test system: MGC-803; assay: Induction of apoptosis in human MGC803 cells assessed as viable cells at 4 uM after 12 hrs by Annexin V-FITC/propidium iodide staining based flow cytometry (reference value: 83.4%); type: functional; details: MGC-803, 12 h, read-out: Activity
[12] = test system: MGC-803; assay: Induction of apoptosis in human MGC803 cells assessed as early apoptotic cells at 8 uM after 12 hrs by Annexin V-FITC/propidium iodide staining based flow cytometry (reference value: 6.3%); type: functional
[13] = test system: MGC-803; assay: Induction of apoptosis in human MGC803 cells assessed as late apoptotic cells at 8 uM after 12 hrs by Annexin V-FITC/propidium iodide staining based flow cytometry (reference value: 1.2%); type: functional
[14] = test system: MGC-803; assay: Induction of apoptosis in human MGC803 cells assessed as necrotic cells at 8 uM after 12 hrs by Annexin V-FITC/propidium iodide staining based flow cytometry (reference value: 9.2%); type: functional
[15] = test system: MGC-803; assay: Induction of apoptosis in human MGC803 cells assessed as viable cells at 8 uM after 12 hrs by Annexin V-FITC/propidium iodide staining based flow cytometry (reference value: 83.4%); type: functional; details: MGC-803, 12 h, read-out: Activity
[16] = test system: MGC-803; assay: Induction of apoptosis in human MGC803 cells assessed as early apoptotic cells at 12 uM after 12 hrs by Annexin V-FITC/propidium iodide staining based flow cytometry (reference value: 6.3%); type: functional
[17] = test system: MGC-803; assay: Induction of apoptosis in human MGC803 cells assessed as late apoptotic cells at 12 uM after 12 hrs by Annexin V-FITC/propidium iodide staining based flow cytometry (reference value: 1.2%); type: functional
[18] = test system: MGC-803; assay: Induction of apoptosis in human MGC803 cells assessed as necrotic cells at 12 uM after 12 hrs by Annexin V-FITC/propidium iodide staining based flow cytometry (reference value: 9.2%); type: functional
[19] = test system: MGC-803; assay: Induction of apoptosis in human MGC803 cells assessed as viable cells at 12 uM after 12 hrs by Annexin V-FITC/propidium iodide staining based flow cytometry (reference value: 83.4%); type: functional; details: MGC-803, 12 h, read-out: Activity
[20] = test system: MGC-803; assay: Induction of apoptosis in human MGC803 cells assessed as early apoptotic cells at 4 uM after 24 hrs by Annexin V-FITC/propidium iodide staining based flow cytometry (reference value: 6%); type: functional
[21] = test system: MGC-803; assay: Induction of apoptosis in human MGC803 cells assessed as late apoptotic cells at 4 uM after 24 hrs by Annexin V-FITC/propidium iodide staining based flow cytometry (reference value: 1.2%); type: functional
[22] = test system: MGC-803; assay: Induction of apoptosis in human MGC803 cells assessed as necrotic cells at 4 uM after 24 hrs by Annexin V-FITC/propidium iodide staining based flow cytometry (reference value: 6.1%); type: functional
[23] = test system: MGC-803; assay: Induction of apoptosis in human MGC803 cells assessed as viable cells at 4 uM after 24 hrs by Annexin V-FITC/propidium iodide staining based flow cytometry (reference value: 86.6%); type: functional; details: MGC-803, 24 h, read-out: Activity
[24] = test system: MGC-803; assay: Induction of apoptosis in human MGC803 cells assessed as early apoptotic cells at 8 uM after 24 hrs by Annexin V-FITC/propidium iodide staining based flow cytometry (reference value: 6%); type: functional
[25] = test system: MGC-803; assay: Induction of apoptosis in human MGC803 cells assessed as late apoptotic cells at 8 uM after 24 hrs by Annexin V-FITC/propidium iodide staining based flow cytometry (reference value: 1.2%); type: functional
[26] = test system: MGC-803; assay: Induction of apoptosis in human MGC803 cells assessed as necrotic cells at 8 uM after 24 hrs by Annexin V-FITC/propidium iodide staining based flow cytometry (reference value: 6.1%); type: functional
[27] = test system: MGC-803; assay: Induction of apoptosis in human MGC803 cells assessed as viable cells at 8 uM after 24 hrs by Annexin V-FITC/propidium iodide staining based flow cytometry (reference value: 86.6%); type: functional; details: MGC-803, 24 h, read-out: Activity
[28] = test system: MGC-803; assay: Induction of apoptosis in human MGC803 cells assessed as early apoptotic cells at 12 uM after 24 hrs by Annexin V-FITC/propidium iodide staining based flow cytometry (reference value: 6%); type: functional
[29] = test system: MGC-803; assay: Induction of apoptosis in human MGC803 cells assessed as late apoptotic cells at 12 uM after 24 hrs by Annexin V-FITC/propidium iodide staining based flow cytometry (reference value: 1.2%); type: functional
[30] = test system: MGC-803; assay: Induction of apoptosis in human MGC803 cells assessed as necrotic cells at 12 uM after 24 hrs by Annexin V-FITC/propidium iodide staining based flow cytometry (reference value: 6.1%); type: functional
[31] = test system: MGC-803; assay: Induction of apoptosis in human MGC803 cells assessed as viable cells at 12 uM after 24 hrs by Annexin V-FITC/propidium iodide staining based flow cytometry (reference value: 86.6%); type: functional; details: MGC-803, 24 h, read-out: Activity
[32] = test system: MGC-803; assay: Induction of apoptosis in human MGC803 cells assessed as increase in expression of cleaved caspase-9 at 4 to 12 uM after 24 hrs by Western blot analysis; type: functional, cell-based
[33] = test system: MGC-803; assay: Induction of apoptosis in human MGC803 cells assessed as increase in expression of cleaved caspase-3 at 4 to 12 uM after 24 hrs by Western blot analysis; type: functional, cell-based
[34] = test system: MGC-803; assay: Induction of apoptosis in human MGC803 cells assessed as decrease in expression of procaspase-9 at 4 to 12 uM after 24 hrs by Western blot analysis; type: functional, cell-based
[35] = test system: MGC-803; assay: Induction of apoptosis in human MGC803 cells assessed as decrease in expression of procaspase-3 at 4 to 12 uM after 24 hrs by Western blot analysis; type: functional, cell-based
[36] = test system: MGC-803; assay: Induction of apoptosis in human MGC803 cells assessed as increase in Bax protein expression after 24 hrs by Western blot analysis; type: functional, cell-based
[37] = test system: MGC-803; assay: Induction of apoptosis in human MGC803 cells assessed as reduction in Bcl-2 protein expression after 24 hrs by Western blot analysis; type: functional, cell-based
[38] = test system: MGC-803; assay: Induction of apoptosis in human MGC803 cells assessed as increase in expression of cleaved caspase-9 at 4 to 12 uM by Western blot analysis; type: functional, cell-based; details: TDE = time-dependent effect
[39] = test system: MGC-803; assay: Induction of apoptosis in human MGC803 cells assessed as increase in expression of cleaved caspase-3 at 4 to 12 uM by Western blot analysis; type: functional, cell-based; details: TDE = time-dependent effect
[40] = test system: MGC-803; assay: Induction of apoptosis in human MGC803 cells assessed as increase in expression of cleaved caspase-9 after 24 hrs by Western blot analysis; type: functional, cell-based
[41] = test system: MGC-803; assay: Induction of apoptosis in human MGC803 cells assessed as increase in expression of cleaved caspase-3 after 24 hrs by Western blot analysis; type: functional, cell-based
[42] = test system: Mus musculus; assay: Toxicity in nude mouse xenografted with human MGC803 cells assessed as body weight loss at 7.5 to 30 mg/kg, po qd for 28 days; type: organism-based, MGC-803; details: in vivo, 672 h
[43] = Antitumor activity against human MGC803 cells xenografted in nude mouse assessed as reduction in tumor weight 7.5 to 30 mg/kg, po qd for 28 days relative to control; type: functional, MGC-803; design: scale not given: the % may be the effect or the level left
[44] = test system: MGC-803; assay: Induction of apoptosis in human MGC803 cells by Annexin V-FITC/propidium iodide staining based flow cytometry; type: functional, cell-based

SMILES: O=C1C(=C/C=C/c2ccccc2)C(=O)N(c2ccc(Cl)cc2)N1c1ccc(Cl)cc1
- IC50 [1]: 5.1 µM
- IC50 [2]: 9.9 µM
- IC50 [3]: 9.4 µM
- IC50 [4]: 10.1 µM
- viability at 72 h, 20 µM [5]: 75%
- Activity [6]: Active
- Activity [7]: Active
- Activity [8]: 12.8%
- Activity [9]: 1.8%
- Activity [10]: 7.8%
- viability at 4 µM [11]: 77.7%
- Activity [12]: 21.5%
- Activity [13]: 1.7%
- Activity [14]: 5.7%
- viability at 8 µM [15]: 71.1%
- Activity [16]: 30.1%
- Activity [17]: 1.9%
- Activity [18]: 3.9%
- viability at 12 µM [19]: 64.1%
- Activity [20]: 20.4%
- Activity [21]: 1.8%
- Activity [22]: 5.8%
- viability at 4 µM [23]: 72.1%
- Activity [24]: 28.8%
- Activity [25]: 2%
- Activity [26]: 4.2%
- viability at 8 µM [27]: 65%
- Activity [28]: 52.7%
- Activity [29]: 3.7%
- Activity [30]: 4.4%
- viability at 12 µM [31]: 39.2%
- Activity [32]: Active
- Activity [33]: Active
- Activity [34]: Active
- Activity [35]: Active
- Activity [36]: Dose-dependent effect
- Activity [37]: Dose-dependent effect
- Activity [38]: tde
- Activity [39]: tde
- Activity [40]: Dose-dependent effect
- Activity [41]: Dose-dependent effect
- Activity [42]: Non-toxic
- Activity [43]: 60.4%
- Activity [44]: Dose-dependent effect

Source: ChEMBL document CHEMBL3751767, “Synthesis, in vitro and in vivo anticancer activities of novel 4-substituted 1,2-bis(4-chlorophenyl)-pyrazolidine-3,5-dione derivatives” (Medchemcomm, 2015)
